Key:
Type in all cases: in vivo
[1] = system: wheat (Triticum aestivum); test: Test Example 2 upland soil treatment, crop phytotoxicity; details: Table 5, upland soil treatment, index 0-5
Procedure, shortened: (§1)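 Pre-emergence soil application the day after sowing, active ingredient at 1 kg per hectare as diluted wettable powder, seeds covered with about 1 cm soil. Assessed 21 days after application on a 0–5 scale (5 = ≥90% herbicidal effect or phytotoxicity; 0 = <10%).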

soybean (Glycine max) [2] = test: as above; details: Table 5, upland soil treatment, index 0-5
Procedure, shortened: as §1

Rice (Oryza sativa) = test: Test Example 3 paddy field treatment, crop phytotoxicity; details: paddy field treatment, transplanted rice Koshihikari, wettable powder, active ingredient 1 kg per hectare, 21st day after the dropping, index 0-5
Procedure, shortened: (§2)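 Weed seeds sown in puddled paddy soil under 4 cm water, with two-leaf Koshihikari rice transplanted; 10 days later a wettable powder was applied to the water surface at 1 kg active ingredient/ha. Scored 21 days after application on a 0–5 scale (0 = <10%, 5 = ≥90% herbicidal effect or phytotoxicity).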

Stellaria media [3] = test: Test Example 2 upland soil treatment; details: Table 5, upland soil treatment, index 0-5
Procedure, shortened: as §1

Chenopodium album [4] = test: Test Example 2 upland soil treatment; details: Table 5, upland soil treatment, index 0-5
Procedure, shortened: as §1

Setaria viridis [5] = test: Test Example 2 upland soil treatment; details: Table 5, upland soil treatment, index 0-5
Procedure, shortened: as §1

Digitaria adscendens [6] = test: Test Example 2 upland soil treatment; details: Table 5, upland soil treatment, index 0-5
Procedure, shortened: as §1

Stellaria media [7] = test: Test Example 1 upland field foliage treatment; details: Table 4, upland field foliage treatment, index 0-5
Procedure, shortened: (§3)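 Post-emergence foliar spray of water-diluted wettable powder at 1 kg active ingredient per hectare, applied 14 days after sowing in upland soil. Weed control or crop phytotoxicity rated 21 days later on a 0–5 scale (5: ≥90%, 0: <10%).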

Chenopodium album [8] = test: Test Example 1 upland field foliage treatment; details: Table 4, upland field foliage treatment, index 0-5
Procedure, shortened: as §3

Setaria viridis [9] = test: Test Example 1 upland field foliage treatment; details: Table 4, upland field foliage treatment, index 0-5
Procedure, shortened: as §3

Digitaria adscendens [10] = test: Test Example 1 upland field foliage treatment; details: Table 4, upland field foliage treatment, index 0-5
Procedure, shortened: as §3

Echinochloa crusgalli = test: Test Example 3 paddy field treatment; details: paddy field treatment, wettable powder, active ingredient 1 kg per hectare, 21st day after the dropping, index 0-5
Procedure, shortened: as §2

Scirpus juncoides = test: Test Example 3 paddy field treatment; details: paddy field treatment, wettable powder, active ingredient 1 kg per hectare, 21st day after the dropping, index 0-5
Procedure, shortened: as §2

Ammannia multiflora = test: Test Example 3 paddy field treatment; details: paddy field treatment, wettable powder, active ingredient 1 kg per hectare, 21st day after the dropping, index 0-5
Procedure, shortened: as §2

Monochoria vaginalis = test: Test Example 3 paddy field treatment; details: paddy field treatment, wettable powder, active ingredient 1 kg per hectare, 21st day after the dropping, index 0-5
Procedure, shortened: as §2

[11] = system: wheat (Triticum aestivum); test: Test Example 1 upland field foliage treatment, crop phytotoxicity; details: Table 4, upland field foliage treatment, index 0-5
Procedure, shortened: as §3

soybean (Glycine max) [12] = test: as above; details: Table 4, upland field foliage treatment, index 0-5
Procedure, shortened: as §3

Row | Compound | Herbicidal activity (phytotoxicity) TA: Wheat (Triticum aestivum) [1] | Herbicidal activity (phytotoxicity) GM: Soybean (Glycine max) (soybean (Glycine max) [2]) | Herbicidal activity OS (phytotoxicity to rice) (Rice (Oryza sativa)) | Herbicidal activity SM: Stellaria media (Stellaria media [3]) | Herbicidal activity CA: Chenopodium album (Chenopodium album [4]) | Herbicidal activity SV: Setaria viridis (Setaria viridis [5]) | Herbicidal activity DA: Digitaria adscendens (Digitaria adscendens [6]) | Herbicidal activity SM: Stellaria media (Stellaria media [7]) | Herbicidal activity CA: Chenopodium album (Chenopodium album [8]) | Herbicidal activity SV: Setaria viridis (Setaria viridis [9]) | Herbicidal activity DA: Digitaria adscendens (Digitaria adscendens [10]) | Herbicidal activity EC (Echinochloa crusgalli) | Herbicidal activity SJ (Scirpus juncoides) | Herbicidal activity AM (Ammannia multiflora) | Herbicidal activity MV (Monochoria vaginalis) | Herbicidal activity (phytotoxicity) TA: Wheat (Triticum aestivum) [11] | Herbicidal activity (phytotoxicity) GM: Soybean (Glycine max) (soybean (Glycine max) [12])
1 | CON=C(Cn1cc(C)c(-c2ccccc2)n1)C(=O)NC1CCCCC1 [Compound 24] | 0 (herbicidal effect of not less than 0% and less than 10%, or phytotoxicity of 0% or more and less than 10%) | 0 (herbicidal effect of not less than 0% and less than 10%, or phytotoxicity of 0% or more and less than 10%) | 0 (herbicidal effect of not less than 0% and less than 10%, or phytotoxicity of 0% or more and less than 10%) | 4 (herbicidal effect of not less than 70% and less than 90%, or phytotoxicity of 70% or more and less than 90%) | 5 (herbicidal effect of not less than 90%, or phytotoxicity of 90% or more) | 4 (herbicidal effect of not less than 70% and less than 90%, or phytotoxicity of 70% or more and less than 90%) | 3 (herbicidal effect of not less than 50% and less than 70%, or phytotoxicity of 50% or more and less than 70%) | 4 (herbicidal effect of not less than 70% and less than 90%, or phytotoxicity of 70% or more and less than 90%) | 4 (herbicidal effect of not less than 70% and less than 90%, or phytotoxicity of 70% or more and less than 90%) | 4 (herbicidal effect of not less than 70% and less than 90%, or phytotoxicity of 70% or more and less than 90%) | 3 (herbicidal effect of not less than 50% and less than 70%, or phytotoxicity of 50% or more and less than 70%) | 4 (herbicidal effect of not less than 70% and less than 90%, or phytotoxicity of 70% or more and less than 90%) | 4 (herbicidal effect of not less than 70% and less than 90%, or phytotoxicity of 70% or more and less than 90%) | 4 (herbicidal effect of not less than 70% and less than 90%, or phytotoxicity of 70% or more and less than 90%) | 5 (herbicidal effect of not less than 90%, or phytotoxicity of 90% or more) | 0 (herbicidal effect of not less than 0% and less than 10%, or phytotoxicity of 0% or more and less than 10%) | 0 (herbicidal effect of not less than 0% and less than 10%, or phytotoxicity of 0% or more and less than 10%)
2 | C=CCNC(=O)C(Cn1cc(C)c(-c2ccccc2)n1)=NOC [Compound 26] | 0 (herbicidal effect of not less than 0% and less than 10%, or phytotoxicity of 0% or more and less than 10%) | 0 (herbicidal effect of not less than 0% and less than 10%, or phytotoxicity of 0% or more and less than 10%) | 0 (herbicidal effect of not less than 0% and less than 10%, or phytotoxicity of 0% or more and less than 10%) | 5 (herbicidal effect of not less than 90%, or phytotoxicity of 90% or more) | 5 (herbicidal effect of not less than 90%, or phytotoxicity of 90% or more) | 4 (herbicidal effect of not less than 70% and less than 90%, or phytotoxicity of 70% or more and less than 90%) | 5 (herbicidal effect of not less than 90%, or phytotoxicity of 90% or more) | 5 (herbicidal effect of not less than 90%, or phytotoxicity of 90% or more) | 5 (herbicidal effect of not less than 90%, or phytotoxicity of 90% or more) | 4 (herbicidal effect of not less than 70% and less than 90%, or phytotoxicity of 70% or more and less than 90%) | 5 (herbicidal effect of not less than 90%, or phytotoxicity of 90% or more) | 5 (herbicidal effect of not less than 90%, or phytotoxicity of 90% or more) | 5 (herbicidal effect of not less than 90%, or phytotoxicity of 90% or more) | 5 (herbicidal effect of not less than 90%, or phytotoxicity of 90% or more) | 5 (herbicidal effect of not less than 90%, or phytotoxicity of 90% or more) | 0 (herbicidal effect of not less than 0% and less than 10%, or phytotoxicity of 0% or more and less than 10%) | 0 (herbicidal effect of not less than 0% and less than 10%, or phytotoxicity of 0% or more and less than 10%)
3 | C#CCNC(=O)C(Cn1cc(C)c(-c2ccccc2)n1)=NOC [Compound 27] | 0 (herbicidal effect of not less than 0% and less than 10%, or phytotoxicity of 0% or more and less than 10%) | 1 (herbicidal effect of not less than 10% and less than 30%, or phytotoxicity of 10% or more and less than 30%) | 0 (herbicidal effect of not less than 0% and less than 10%, or phytotoxicity of 0% or more and less than 10%) | 5 (herbicidal effect of not less than 90%, or phytotoxicity of 90% or more) | 5 (herbicidal effect of not less than 90%, or phytotoxicity of 90% or more) | 5 (herbicidal effect of not less than 90%, or phytotoxicity of 90% or more) | 5 (herbicidal effect of not less than 90%, or phytotoxicity of 90% or more) | 5 (herbicidal effect of not less than 90%, or phytotoxicity of 90% or more) | 5 (herbicidal effect of not less than 90%, or phytotoxicity of 90% or more) | 5 (herbicidal effect of not less than 90%, or phytotoxicity of 90% or more) | 5 (herbicidal effect of not less than 90%, or phytotoxicity of 90% or more) | 5 (herbicidal effect of not less than 90%, or phytotoxicity of 90% or more) | 5 (herbicidal effect of not less than 90%, or phytotoxicity of 90% or more) | 5 (herbicidal effect of not less than 90%, or phytotoxicity of 90% or more) | 5 (herbicidal effect of not less than 90%, or phytotoxicity of 90% or more) | 0 (herbicidal effect of not less than 0% and less than 10%, or phytotoxicity of 0% or more and less than 10%) | 0 (herbicidal effect of not less than 0% and less than 10%, or phytotoxicity of 0% or more and less than 10%)
